Experiments:
Experiment in all cases: relative viability (nuclei count vs DMSO), 5 days (fraction); higher = more cells survive
[1] = compound: O=C(O)c1ccc2c(c1)nc(Nc1cccc(Cl)c1)c1ccncc12 [Silmitasertib] + CC(=O)Nc1cccc(-n2c(=O)n(C3CC3)c(=O)c3c(Nc4ccc(I)cc4F)n(C)c(=O)c(C)c32)c1 [Trametinib] (partner 0.02 µM)
Summary of the method: (§1)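 Lung cancer cell lines in 1536-well plates were dosed by pin tool the day after seeding, either with one drug alone or with a fixed anchor-drug dose plus five library-drug doses (not always all listed) in √10 steps. After 5 days, cells were fixed and their nuclei stained in one step (final 0.05% Triton X-100, 1% formaldehyde, 1 ug/ml Hoechst), then counted on 4× images. Relative viability is the nuclei count in treated wells divided by that in vehicle wells. Values are medians of duplicate plates.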

[2] = compound: O=C(O)c1ccc2c(c1)nc(Nc1cccc(Cl)c1)c1ccncc12 [Silmitasertib] + CC(=O)c1c(C)c2cnc(Nc3ccc(N4CCNCC4)cn3)nc2n(C2CCCC2)c1=O [Palbociclib] (partner 0.5 µM)
Summary of the method: as §1

[3] = compound: O=C(O)c1ccc2c(c1)nc(Nc1cccc(Cl)c1)c1ccncc12 [Silmitasertib] + Cc1cc(Nc2cc(N3CCN(C)CC3)nc(Sc3ccc(NC(=O)C4CC4)cc3)n2)n[nH]1 [Tozasertib] (partner 0.1 µM)
Summary of the method: as §1

[4] = compound: O=C(O)c1ccc2c(c1)nc(Nc1cccc(Cl)c1)c1ccncc12 [Silmitasertib] + Cc1nc(Nc2ncc(C(=O)Nc3c(C)cccc3Cl)s2)cc(N2CCN(CCO)CC2)n1 [Dasatinib] (partner 0.075 µM)
Summary of the method: as §1

Silmitasertib + AZD7762 = compound: O=C(O)c1ccc2c(c1)nc(Nc1cccc(Cl)c1)c1ccncc12 [Silmitasertib] + NC(=O)Nc1cc(-c2cccc(F)c2)sc1C(=O)N[C@H]1CCCNC1 [AZD7762] (partner 0.2 µM)
Summary of the method: as §1

Row | Cell Line | relative viability ([1]; first compound 0.04 µM) | relative viability ([1]; first compound 0.4 µM) | relative viability ([1]; first compound 1.265 µM) | relative viability ([1]; first compound 4 µM) | relative viability ([2]; first compound 0.04 µM) | relative viability ([2]; first compound 0.4 µM) | relative viability ([2]; first compound 1.265 µM) | relative viability ([2]; first compound 4 µM) | relative viability ([3]; first compound 0.04 µM) | relative viability ([3]; first compound 0.4 µM) | relative viability ([3]; first compound 1.265 µM) | relative viability ([3]; first compound 4 µM) | relative viability ([4]; first compound 0.04 µM) | relative viability ([4]; first compound 0.4 µM) | relative viability ([4]; first compound 1.265 µM) | relative viability ([4]; first compound 4 µM) | relative viability (Silmitasertib + AZD7762; first compound 0.04 µM) | relative viability (Silmitasertib + AZD7762; first compound 0.4 µM) | relative viability (Silmitasertib + AZD7762; first compound 1.265 µM) | relative viability (Silmitasertib + AZD7762; first compound 4 µM)
1 | LU99A | 0.5 | 0.549 | 0.38 | 0.461 | 0.359 | 0.397 | 0.325 | 0.404 | 0.316 | 0.29 | 0.263 | 0.256 | 0.478 | 0.46 | 0.369 | 0.434 | 0.339 | 0.382 | 0.276 | 0.283
2 | PC-3 [JPC-3] | 0.716 | 0.661 | 0.795 | 0.632 | 0.544 | 0.544 | 0.615 | 0.585 | 0.971 | 0.69 | 0.86 | 0.835 | 1.04 | 0.628 | 1.03 | 0.899 | 0.862 | 0.723 | 0.897 | 0.75
3 | LCLC-97TM1 | 0.217 | – | 0.156 | 0.145 | 0.234 | – | 0.15 | 0.151 | 0.247 | – | 0.168 | 0.162 | 0.976 | – | 0.916 | 0.767 | 0.418 | – | 0.191 | 0.128
4 | NCI-H1993 | 0.584 | 0.609 | 0.578 | 0.586 | 0.57 | 0.576 | 0.525 | 0.44 | 0.622 | 0.523 | 0.522 | 0.53 | 0.652 | 0.502 | 0.52 | 0.586 | 0.925 | 0.653 | 0.721 | 0.663
5 | HARA | 0.97 | 0.594 | 0.419 | 0.487 | 0.389 | 0.252 | 0.201 | 0.261 | 0.107 | 0.0804 | 0.0797 | 0.0693 | 0.254 | 0.246 | 0.253 | 0.272 | 0.411 | 0.289 | 0.589 | 0.443
6 | NCI-H460 | 0.201 | 0.196 | 0.131 | 0.0739 | 0.203 | 0.25 | 0.189 | 0.075 | 0.556 | 0.119 | 0.405 | 0.523 | 0.56 | 0.445 | 0.44 | 0.448 | 0.608 | 0.671 | 0.759 | 0.384
7 | EKVX | 0.385 | – | 0.269 | 0.47 | 0.439 | – | 0.336 | 0.423 | 0.434 | 0.25 | 0.295 | 0.405 | 0.6 | 0.394 | 0.478 | 0.373 | 0.834 | – | 0.682 | 0.642
8 | NCI-H1755 | 0.74 | 0.779 | 0.826 | 0.864 | 0.436 | 0.443 | 0.456 | 0.447 | 0.572 | 0.519 | 0.623 | 0.714 | 0.382 | 0.419 | 0.408 | 0.363 | 0.407 | 0.479 | 0.528 | 0.494
9 | NCI-H1395 | 1.07 | 0.809 | 1.03 | 1.14 | 0.631 | 0.617 | 0.592 | 0.597 | 0.742 | 0.559 | 0.68 | 0.623 | 0.471 | 0.387 | 0.431 | 0.414 | 0.425 | 0.42 | 0.421 | 0.41
10 | NCI-H2087 | 0.26 | 0.186 | 0.135 | 0.134 | 0.217 | 0.224 | 0.18 | 0.139 | 0.264 | – | 0.152 | 0.132 | 0.828 | – | 0.695 | 0.308 | 1.34 | 1.1 | 1.35 | 0.817
11 | H3255 | 0.651 | 0.604 | 0.527 | 0.565 | 0.319 | 0.348 | 0.316 | 0.294 | 0.756 | 0.593 | 0.678 | 0.59 | 0.364 | 0.34 | 0.298 | 0.349 | 1.09 | 0.808 | 0.807 | 0.77
12 | NCI-H23 | 0.439 | 0.323 | 0.365 | 0.36 | 0.467 | 0.444 | 0.423 | 0.393 | 0.427 | – | 0.223 | 0.188 | 0.793 | – | 0.652 | 0.581 | 0.29 | 0.153 | 0.344 | 0.165
13 | HCC-827 | 0.604 | – | 0.406 | 0.422 | 0.556 | – | 0.343 | 0.442 | 0.454 | – | 0.398 | 0.471 | 0.342 | – | 0.259 | 0.274 | 0.234 | – | 0.214 | 0.205
14 | HCC-78 | 0.794 | 0.615 | 0.537 | 0.656 | 0.521 | 0.432 | 0.497 | 0.455 | 0.446 | 0.315 | 0.384 | 0.492 | 0.51 | 0.286 | 0.309 | 0.323 | 0.783 | 0.469 | 0.405 | 0.475
15 | NCI-H1975 | 0.613 | – | 0.297 | 0.315 | 0.645 | – | 0.192 | 0.499 | 0.942 | – | 0.514 | 0.308 | 0.401 | – | 0.324 | 0.432 | 0.775 | – | 0.647 | 0.795
16 | CAL-12T | 0.444 | 0.3 | 0.394 | 0.284 | 0.408 | 0.382 | 0.313 | 0.194 | 0.292 | 0.282 | 0.227 | 0.175 | 0.569 | 0.32 | 0.183 | 0.198 | 0.656 | 0.7 | 0.805 | 0.77
17 | NCI-H2126 | 0.578 | 0.521 | 0.467 | 0.501 | 0.357 | 0.353 | 0.356 | 0.349 | 0.845 | 0.759 | 0.793 | 0.709 | 0.602 | 0.584 | 0.573 | 0.539 | 1.05 | 0.836 | 1.09 | 0.934
